Measurements reported in the supplement of paper PMC12137928.
Where a name gives a salt, the structure may show the parent alone.

System: HCT116
Details: 72 h
Procedure, shortened: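 Four-parameter Hill fits gave IC50 and maximal efficacy. The data were CellTiter-Glo luminescence readings in HCT116 cells, normalized so that vehicle was 0% and positive control was -100%, with pattern correction afterwards.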

Row | Structure (SMILES) | IC50 cell viability (ICRF193 0 nM) | IC50 cell viability (ICRF193 200 nM)
1 | O=c1c(O)c(-c2ccc(O)c(O)c2)oc2cc(O)cc(O)c12 [Quercetin] | > 45.8 µM | > 45.8 µM
2 | OCCOCCN1CCN(C2=Nc3ccccc3Sc3ccccc32)CC1 [Quetiapine] | > 45.8 µM | > 45.8 µM
3 | CCCN1CC(NS(=O)(=O)N(CC)CC)CC2Cc3c(O)cccc3CC21 (centres undefined) [Quinagolide (hydrochloride)] | > 45.8 µM | > 45.8 µM
4 | CCOC(=O)[C@H](CCc1ccccc1)N[C@@H](C)C(=O)N1Cc2ccccc2C[C@H]1C(=O)O [Quinapril hydrochloride] | > 45.8 µM | > 45.8 µM
5 | CCC1NC(=O)c2cc(S(N)(=O)=O)c(Cl)cc2N1 (centres undefined) [Quinethazone] | > 45.8 µM | > 45.8 µM
6 | C=C[C@H]1CN2CC[C@H]1C[C@@H]2[C@@H](O)c1ccnc2ccc(OC)cc12 [Quinidine hydrochloride monohydrate] | > 45.8 µM | > 45.8 µM
7 | CC(C)NC[C@@H](O)COc1ccc(CC(N)=O)cc1 [R-(+)-Atenolol] | > 45.8 µM | > 45.8 µM
8 | CNC(C)C(O)c1ccccc1 (centres undefined) [RACEPHEDRINE HYDROCHLORIDE] | > 45.8 µM | > 45.8 µM
9 | CC(CCc1ccc(O)cc1)NCC(O)c1ccc(O)cc1 (centres undefined) [RACTOPAMINE HYDROCHLORIDE] | > 45.8 µM | > 45.8 µM
10 | CC1=C(/C=C/C(C)=C/C=C/C(C)=C/CO)C(C)(C)CCC1 [RETINOL] | > 45.8 µM | > 45.8 µM
11 | Cc1cc2nc3c(=O)[nH]c(=O)nc-3n(CC(O)C(O)C(O)COP(=O)(O)O)c2cc1C (centres undefined) [RIBOFLAVIN 5-PHOSPHATE SODIUM] | > 45.8 µM | > 45.8 µM
12 | CCc1ccc(Nc2c(F)c(F)cc(F)c2F)c(CC(=O)O)c1 [ROBENACOXIB] | > 45.8 µM | > 45.8 µM
13 | Fc1cccc(Br)c1NC1=NCCN1 [ROMIFIDINE] | > 45.8 µM | > 45.8 µM
14 | CCCCCCCCCCCCCCCCCC(=O)NCCCC[C@H](NC(=O)CC[C@@H](NC(=O)[C@H](C)NC(=O)[C@@H](C)O[C@H]1[C@H](O)[C@@H](CO)OC(O)[C@@H]1NC(C)=O)C(N)=O)C(=O)O (some centres undefined) [ROMURTIDE] | > 45.8 µM | > 45.8 µM
15 | COCCCOc1ccnc(C[S+]([O-])c2nc3ccccc3[nH]2)c1C (centres undefined) [Rabeprazole] | > 45.8 µM | > 45.8 µM
16 | Cc1nnc(C(=O)NC(C)(C)c2nc(C(=O)NCc3ccc(F)cc3)c(O)c(=O)n2C)o1 [Raltegravir] | > 45.8 µM | > 45.8 µM
17 | Cc1nc(=O)c2cc(CN(C)c3ccc(C(=O)N[C@@H](CCC(=O)O)C(=O)O)s3)ccc2[nH]1 [Raltitrexed] | > 45.8 µM | > 45.8 µM
18 | O=C(O)CCn1c2c(c3ccccc31)C[C@H](NS(=O)(=O)c1ccc(F)cc1)CC2 [Ramatroban] | > 45.8 µM | > 45.8 µM
19 | CCC(=O)NCC[C@@H]1CCc2ccc3c(c21)CCO3 [Ramelteon] | > 45.8 µM | > 45.8 µM

Row | Structure (SMILES) | IC50 cell viability (ICRF193 0 nM) | IC50 cell viability (ICRF193 200 nM)
20 | CCOC(=O)[C@H](CCc1ccccc1)N[C@@H](C)C(=O)N1[C@H](C(=O)O)C[C@@H]2CCC[C@@H]21 [Ramipril] | > 45.8 µM | > 45.8 µM
21 | Cn1cc(C(=O)[C@@H]2CCc3[nH]cnc3C2)c2ccccc21 [Ramosetron hydrochloride] | > 45.8 µM | > 45.8 µM
22 | CNC(=C[N+](=O)[O-])NCCSCc1ccc(CN(C)C)o1 [Ranitidine] | > 45.8 µM | > 45.8 µM
23 | COc1ccccc1OCC(O)CN1CCN(CC(=O)Nc2c(C)cccc2C)CC1 (centres undefined) [Ranolazine] | > 45.8 µM | > 45.8 µM
24 | C=CC[N+]1([C@H]2C[C@H]3[C@@H]4CC[C@H]5C[C@H](OC(C)=O)[C@@H](N6CCCCC6)C[C@]5(C)[C@H]4CC[C@]3(C)[C@H]2OC(=O)CC)CCCCC1 [Rapacuronium bromide] | > 45.8 µM | > 45.8 µM
25 | C#CCN[C@@H]1CCc2ccccc21 [Rasagiline mesylate] | > 45.8 µM | > 45.8 µM
26 | O=C(NC(Cc1cc(=O)[nH]c2ccccc12)C(=O)O)c1ccc(Cl)cc1 (centres undefined) [Rebamipide] | > 45.8 µM | > 45.8 µM
27 | CCOc1ccccc1OC(c1ccccc1)C1CNCCO1 (centres undefined) [Reboxetine mesylate] | > 45.8 µM | > 45.8 µM
28 | CCOc1cc(CC(=O)N[C@@H](CC(C)C)c2ccccc2N2CCCCC2)ccc1C(=O)O [Repaglinide] | > 45.8 µM | > 45.8 µM
29 | COC(=O)[C@H]1[C@H]2C[C@@H]3c4[nH]c5cc(OC)ccc5c4CCN3C[C@H]2C[C@@H](OC(=O)/C=C/c2cc(OC)c(OC)c(OC)c2)[C@@H]1OC [Rescinnamin] | > 45.8 µM | > 45.8 µM
30 | CCCC(=O)O[C@]1(C(=O)CC)CC[C@H]2[C@@H]3CCC4=CC(=O)CC[C@]4(C)[C@H]3[C@@H](O)C[C@@]21C [Resocortol butyrate] | > 45.8 µM | > 45.8 µM
31 | CC(=O)Oc1cccc(O)c1 [Resorcinol monoacetate] | > 45.8 µM | > 45.8 µM
32 | C=C[C@]1(C)C[C@@H](OC(=O)CS[C@@H]2C[C@H]3CC[C@@H](C2)N3C)[C@]2(C)[C@H](C)CC[C@]3(CCC(=O)[C@H]32)[C@@H](C)[C@@H]1O [Retapamulin] | > 45.8 µM | > 45.8 µM
33 | CCCCCCCCCCCCCCCC(=O)OC/C=C(C)/C=C/C=C(C)/C=C/C1=C(C)CCCC1(C)C [Retinyl palmitate] | > 45.8 µM | > 45.8 µM
34 | NC(=O)c1ncn([C@@H]2O[C@H](CO)[C@@H](O)[C@H]2O)n1 [Ribavirin] | > 45.8 µM | > 45.8 µM
35 | CN(C)C(=O)c1cc2cnc(Nc3ccc(N4CCNCC4)cn3)nc2n1C1CCCC1 [Ribociclib (LEE011)] | > 45.8 µM | > 45.8 µM
36 | NC[C@H]1O[C@H](O[C@H]2[C@H](O[C@@H]3O[C@H](CO)[C@@H](O)[C@H]3O)[C@@H](O)[C@H](N)C[C@@H]2N)[C@H](N)[C@@H](O)[C@@H]1O [Ribostamycin sulfate] | > 45.8 µM | > 45.8 µM
37 | CO[C@H]1/C=C/O[C@@]2(C)Oc3c(C)c(O)c4c(c3C2=O)C2=NC3(CCN(CC(C)C)CC3)NC2=C(NC(=O)/C(C)=C\C=C\[C@H](C)[C@H](O)[C@@H](C)[C@@H](O)[C@@H](C)[C@H](OC(C)=O)[C@@H]1C)C4=O [Rifabutin] | > 45.8 µM | > 45.8 µM
38 | CO[C@H]1/C=C/O[C@@]2(C)Oc3c(C)c(O)c4c(O)c(c(/C=N/N5CCN(C6CCCC6)CC5)c(O)c4c3C2=O)NC(=O)/C(C)=C\C=C\[C@H](C)[C@H](O)[C@@H](C)[C@@H](O)[C@@H](C)[C@H](OC(C)=O)[C@@H]1C [Rifapentine] | > 45.8 µM | > 45.8 µM

Row | Structure (SMILES) | IC50 cell viability (ICRF193 0 nM) | IC50 cell viability (ICRF193 200 nM)
39 | CO[C@H]1/C=C/O[C@@]2(C)Oc3c(C)c(O)c4c(O)c(c5c(nc6cc(C)ccn65)c4c3C2=O)NC(=O)/C(C)=C\C=C\[C@H](C)[C@H](O)[C@@H](C)[C@@H](O)[C@@H](C)[C@H](OC(C)=O)[C@@H]1C [Rifaximin] | > 45.8 µM | > 45.8 µM
40 | CC(N)C12CC3CC(CC(C3)C1)C2 (centres undefined) [Rimantadine] | > 45.8 µM | > 45.8 µM
41 | CCC(=O)[C@@]1(C)[C@H](C)C[C@H]2[C@@H]3CCC4=CC(=O)C=C[C@]4(C)[C@H]3[C@@H](O)C[C@@]21C [Rimexolone] | > 45.8 µM | > 45.8 µM
42 | COC(=O)N(C)c1c(N)nc(-c2nn(Cc3ccccc3F)c3ncccc23)nc1N [Riociguat] | > 45.8 µM | > 45.8 µM
43 | C[C@H]1CNCCCN1S(=O)(=O)c1cccc2cncc(F)c12 [Ripasudil] | > 45.8 µM | > 45.8 µM
44 | CCCCCOc1ccc(C2SC(=O)NC2=O)cc1OCC (centres undefined) [Risarestat] | > 45.8 µM | > 45.8 µM
45 | O=P(O)(O)C(O)(Cc1cccnc1)P(=O)(O)O [Risedronate sodium] | > 45.8 µM | > 45.8 µM
46 | Cc1nc2n(c(=O)c1CCN1CCC(c3noc4cc(F)ccc34)CC1)CCCC2 [Risperidone] | > 45.8 µM | > 45.8 µM
47 | CC(NCCc1ccc(O)cc1)C(O)c1ccc(O)cc1 (centres undefined) [Ritodrine hydrochloride] | > 45.8 µM | > 45.8 µM
48 | O=C(NC[C@H]1CN(c2ccc(N3CCOCC3=O)cc2)C(=O)O1)c1ccc(Cl)s1 [Rivaroxaban] | > 45.8 µM | > 45.8 µM
49 | CCN(C)C(=O)Oc1cccc([C@H](C)N(C)C)c1 [Rivastigmine tartrate] | > 45.8 µM | > 45.8 µM
50 | CN(C)CCc1c[nH]c2ccc(Cn3cncn3)cc12 [Rizatriptan Benzoate] | > 45.8 µM | > 45.8 µM
51 | Cc1cccc(C)c1N(CCCc1cccnc1)C(=O)C(C)N (centres undefined) [Ro 22-9194] | > 45.8 µM | > 45.8 µM
52 | N=C(N/N=C/c1ccc(Cl)cc1)N/N=C/c1ccc(Cl)cc1 [Robenidine] | > 45.8 µM | > 45.8 µM
53 | C=CC[N+]1([C@H]2C[C@H]3[C@@H]4CC[C@H]5C[C@H](O)[C@@H](N6CCOCC6)C[C@]5(C)[C@H]4CC[C@]3(C)[C@H]2OC(C)=O)CCCC1 [Rocuronium bromide] | > 45.8 µM | > 45.8 µM
54 | CS(=O)(=O)c1ccc(C2=C(c3ccccc3)C(=O)OC2)cc1 [Rofecoxib] | > 45.8 µM | > 45.8 µM
55 | O=C(Nc1c(Cl)cncc1Cl)c1ccc(OC(F)F)c(OCC2CC2)c1 [Roflumilast] | > 45.8 µM | > 45.8 µM
56 | COc1ccc(C2CNC(=O)C2)cc1OC1CCCC1 (centres undefined) [Rolipram] | > 45.8 µM | > 45.8 µM
57 | CN(C)[C@@H]1C(O)=C(C(=O)NCN2CCCC2)C(=O)[C@@]2(O)C(O)=C3C(=O)c4c(O)cccc4[C@@](C)(O)[C@H]3C[C@@H]12 [Rolitetracycline] | > 45.8 µM | > 45.8 µM
